Data: patent US11400063B2, “Early administration of low-dose colchicine after myocardial infarction” (INSTITUT DE CARDIOLOGIE DE MONTREAL, priority 2019, dated 2022)
Several values for one entry are separate records, joined by “and”; a condition that tells them apart may be missing. Equal entries are not always repeated.

System: patients recruited within 30 days after a myocardial infarction
Assay: COLCOT randomized double-blind trial, efficacy end points, colchicine 0.5 mg once daily vs placebo
Format: in vivo, human
Conditions: for Total primary endpoint events, Rate Ratio (95% CI): Negative binomial model, marginal rate ratio; for Rate of primary endpoint events per 100 patient-months: first and recurrent events
Description: We performed a randomized, double-blind trial involving patients recruited within 30 days after a myocardial infarction. The patients were randomly assigned to receive either low-dose colchicine (0.5 mg once daily) or placebo. A total of 4745 patients were enrolled; 2386 patients were assigned to the colchicine group, and 2379 to the placebo group. Patients were followed for a median of 22.6 months.
The primary efficacy end point was a composite of death from cardiovascular causes, resuscitated cardiac arrest, myocardial infarction (e.g., acute myocardial infraction or type II myocardial infarction), stroke, or urgent hospitalization for angina leading to coronary revascularization. The components of the primary end point and safety were also assessed.
COLCOT was an international multicenter, randomized, double-blinded trial that randomly assigned patients to receive either low-dose colchicine (0.5 mg once daily) or placebo. The study protocol and main results have been published (see, Tardif et al., N Engl J Med 2019). […] Main exclusion criteria were severe heart failure, reduced left ventricular ejection fraction (<35%), recent stroke (<3 months), type 2 MI, recent (<3 years) or planned coronary artery bypass graft (CABG), history of cancer (<3 years), and inflammatory bowel disease or chronic diarrhea. All patients enrolled in the trial benefited from percutaneous coronary intervention whenever indicated and guidelines-directed management of CV disease prior to randomization (see. Tardif et al., N Engl J Med 2019).
Clinical follow-up consisted of evaluations at 1 and 3 months after randomization and every 3 months thereafter. An independent clinical endpoint committee, blinded to trial-group assignment, adjudicated clinical endpoints. The trial was locally approved by the various institutional review boards, and all patients signed a written informed consent before enrollment.
The primary efficacy endpoint was a composite of CV death, resuscitated cardiac arrest, MI, stroke, or urgent hospitalization for angina requiring coronary revascularization. The secondary endpoints consisted of the components of the primary efficacy endpoint, all-cause death, and a composite of CV death, resuscitated cardiac arrest, MI, or stroke. Exploratory endpoints included all coronary revascularizations, including both elective and urgent coronary revascularizations.
The primary efficacy endpoint was a composite of cardiovascular death, MI, ischemic stroke, and urgent coronary revascularization. Secondary efficacy endpoints consisted of the components of the primary endpoint, composite of cardiovascular death, MI, and ischemic stroke, as well as deep vein thrombosis or pulmonary embolus, and atrial fibrillation (AF). To maximize consistency in pooling efficacy endpoints among trials, the primary and secondary composite efficacy and stroke endpoints in COLCOT were modified to meet the definition of primary and stroke endpoints of the LoDoCo2 trial. Therefore, adjudicated events of resuscitated cardiac arrest and non-ischemic stroke in COLCOT were excluded from the pooled primary endpoint. The component endpoint of stroke was also restricted to include only ischemic strokes. Incidence rates and hazards ratios (HRs) were calculated for the new primary composite endpoint and ischemic stroke endpoint using individual patient data from COLCOT.
The COLCOT trial was performed as follows. A randomized, double-blind trial involving patients recruited within 30 days after a myocardial infarction was performed. The patients were randomly assigned to receive either low-dose colchicine (0.5 mg once daily) or placebo. A total of 4745 patients were enrolled; 2386 patients were assigned to the colchicine group, and 2379 to the placebo group. […]

[1] = COLCOT endpoint modified to LoDoCo2 definition
[2] = intention-to-treat population, listed as colchicine
[3] = intention-to-treat, colchicine vs placebo
[4] = intention-to-treat, colchicine vs placebo, listed as colchicine

Question: `COc1cc2c(c(OC)c1OC)-c1ccc(OC)c(=O)cc1[C@@H](NC(C)=O)CC2` [Colchicine, colchicine] was tested. Which “Total number of primary endpoint events (first and recurrent)” value (52949 patient-months of follow-up) did it give?
Answer: Its value is 154.

Question: And the “Primary efficacy composite endpoint, no. of patients with event/total no. of patients” value (All patients)?
Answer: Its value is 131/2366.

Question: What about the “Total primary endpoint events, Hazard Ratio (95% CI)” value (Andersen-Gill model) of the same compound?
Answer: Its value is 0.69 (0.54; 0.88).

Question: And the “Primary composite outcome (cardiovascular mortality, myocardial infarction, ischemic stroke, urgent revascularization), Events %” value [1]?
Answer: The value was “(5.5%)”.

Question: What about the “Primary composite outcome (cardiovascular mortality, myocardial infarction, ischemic stroke, urgent revascularization), HR (95% CI)” value [1] of the same compound?
Answer: Its value is 0.77 (0.61-0.97).

Question: What about the “Primary composite outcome (cardiovascular mortality, myocardial infarction, ischemic stroke, urgent revascularization), Events N” value (COLCOT endpoint modified to LoDoCo2 definition, N = 2366) of the same compound?
Answer: The value was 130 N.

Question: What about the “Ischemic stroke, Events %” value (COLCOT, only ischemic strokes) of the same compound?
Answer: Its value is 0.2%.

Question: And the “Ischemic stroke, Events N” value (COLCOT, only ischemic strokes)?
Answer: The value was 4 N.

Question: And the “Ischemic stroke, HR (95% CI)” value (COLCOT, only ischemic strokes)?
Answer: Its value is 0.25 (0.08-0.75).

Question: And the “Ischemic stroke, HR (95% CI)” value (COLCOT, only ischemic strokes, listed as colchicine)?
Answer: Its value is 0.25.

Question: And the “Number of patients with 0 primary endpoint events per patient” value (N = 2366)?
Answer: The value was 2235.

Question: What about the “Number of patients with 1 primary endpoint event per patient” value (N = 2366) of the same compound?
Answer: The value was 111.

Question: What about the “Number of patients with 2 primary endpoint events per patient” value (N = 2366) of the same compound?
Answer: Its value is 18.

Question: And the “Number of patients with 3 primary endpoint events per patient” value (N = 2366)?
Answer: The value was 1.

Question: What about the “Number of patients with 4 primary endpoint events per patient” value (N = 2366) of the same compound?
Answer: Its value is 1.

Question: And the “Total primary endpoint events, Rate Ratio (95% CI)” value?
Answer: Its value is 0.66 (0.51; 0.86).

Question: What about the “Total primary endpoint events, Rate Ratio (95% CI)” value (listed as colchicine) of the same compound?
Answer: Its value is 0.66.

Question: What about the “Total primary endpoint events, Hazard Ratio (95% CI)” value (WLW model, 1st Event) of the same compound?
Answer: Its value is 0.77 (0.61; 0.96).

Question: What about the “Total primary endpoint events, Hazard Ratio (95% CI)” value (WLW model, 2nd Event) of the same compound?
Answer: The value was 0.73 (0.48; 1.11).

Question: And the “Total primary endpoint events, Hazard Ratio (95% CI)” value (WLW model, 3rd Event)?
Answer: Its value is 0.64 (0.37; 1.10).

Question: And the “Total primary endpoint events, Hazard Ratio (95% CI)” value (WLW model, Average)?
Answer: Its value is 0.77 (0.61; 0.96).

Question: And the “Rate of primary endpoint events per 100 patient-months” value?
Answer: The value was 0.29 per 100 patient-months.

Question: And the “Rate of primary endpoint events per 100 patient-months” value (listed as colchicine)?
Answer: Its value is 029 per 100 patient-months.

Question: And the “Atrial fibrillation, number of patients” value (intention-to-treat population)?
Answer: Its value is 36 number.

Question: And the “Atrial fibrillation, percent of patients” value (intention-to-treat population)?
Answer: The value was “(1.5) percent”.

Question: What about the “Death from cardiovascular causes, number of patients” value (intention-to-treat population) of the same compound?
Answer: The value was 20 number.

Question: What about the “Death, number of patients” value (intention-to-treat population) of the same compound?
Answer: Its value is 43 number.

Question: What about the “Death, percent of patients” value (intention-to-treat population) of the same compound?
Answer: The value was “(1.8) percent”.

Question: And the “Deep venous thrombosis or pulmonary embolus, number of patients” value (intention-to-treat population)?
Answer: The value was 10 number.

Question: And the “Deep venous thrombosis or pulmonary embolus, percent of patients” value (intention-to-treat population)?
Answer: Its value is “(0.4) percent”.

Question: What about the “Myocardial infarction, number of patients” value (intention-to-treat population) of the same compound?
Answer: Its value is 89 number.

Question: What about the “Resuscitated cardiac arrest, number of patients” value (intention-to-treat population) of the same compound?
Answer: The value was 5 number.

Question: And the “Resuscitated cardiac arrest, percent of patients” value (intention-to-treat population)?
Answer: Its value is “(0.2) percent”.

Question: And the “Secondary composite end point, percent of patients” value (intention-to-treat population)?
Answer: Its value is “(4.7) percent”.

Question: What about the “Stroke, number of patients” value (intention-to-treat population) of the same compound?
Answer: The value was 5 number.

Question: And the “Stroke, percent of patients” value (intention-to-treat population)?
Answer: Its value is “(0.2) percent”.

Question: And the “Urgent hospitalization for angina leading to revascularization, number of patients” value (intention-to-treat population)?
Answer: Its value is 25 number.

Question: What about the “Primary composite end point, number of patients” value (intention-to-treat population, N = 2366, median follow-up 22.6 months) of the same compound?
Answer: Its value is 131 number.

Question: And the “Primary composite end point, percent of patients” value [2]?
Answer: The value was 5.5%.

Question: And the “Secondary composite end point, percent of patients” value [2]?
Answer: The value was 4.7%.

Question: What about the “Atrial fibrillation, Hazard Ratio (95% CI)” value [3] of the same compound?
Answer: The value was 0.93 (0.59-1.46).

Question: What about the “Death from cardiovascular causes, Hazard Ratio (95% CI)” value [3] of the same compound?
Answer: Its value is 0.84 (0.46-1.52).

Question: What about the “Death, Hazard Ratio (95% CI)” value [3] of the same compound?
Answer: Its value is 0.98 (0.64-1.49).

Question: What about the “Deep venous thrombosis or pulmonary embolus, Hazard Ratio (95% CI)” value [3] of the same compound?
Answer: The value was 1.43 (0.54-3.75).

Question: And the “Myocardial infarction, Hazard Ratio (95% CI)” value [3]?
Answer: The value was 0.91 (0.68-1.21).

Question: And the “Primary composite end point, Hazard Ratio (95% CI)” value [3]?
Answer: The value was 0.77 (0.61-0.96).

Question: What about the “Resuscitated cardiac arrest, Hazard Ratio (95% CI)” value [3] of the same compound?
Answer: The value was 0.83 (0.25-2.73).

Question: And the “Secondary composite end point, Hazard Ratio (95% CI)” value [3]?
Answer: The value was 0.85 (0.66-1.10).

Question: And the “Stroke, Hazard Ratio (95% CI)” value [3]?
Answer: Its value is 0.26 (0.10-0.70).

Question: And the “Urgent hospitalization for angina leading to revascularization, Hazard Ratio (95% CI)” value [3]?
Answer: The value was 0.50 (0.31-0.81) and 0.50 (0.31.-0.81).

Question: And the “Death from cardiovascular causes, Hazard Ratio (95% CI)” value [4]?
Answer: The value was 0.84.

Question: What about the “Myocardial infarction, Hazard Ratio (95% CI)” value [4] of the same compound?
Answer: The value was 0.91.

Question: What about the “Primary composite end point, Hazard Ratio (95% CI)” value [4] of the same compound?
Answer: Its value is 0.77.

Question: And the “Resuscitated cardiac arrest, Hazard Ratio (95% CI)” value [4]?
Answer: The value was 0.83.

Question: And the “Secondary composite end point, Hazard Ratio (95% CI)” value [4]?
Answer: Its value is 0.85.

Question: And the “Stroke, Hazard Ratio (95% CI)” value [4]?
Answer: Its value is 0.26.

Question: What about the “Urgent hospitalization for angina leading to revascularization, Hazard Ratio (95% CI)” value [4] of the same compound?
Answer: The value was 0.50.

Question: What about the “Secondary composite end point, number of patients” value (intention-to-treat, death from cardiovascular causes, resuscitated cardiac arrest, myocardial infarction, and stroke) of the same compound?
Answer: Its value is 111 number.

Question: And the “reduction of the risk of ischemic CV events” value (main COLCOT results, post-MI setting)?
Answer: Its value is 23%.

Question: And the “Time to first primary endpoint, Adjusted Hazard Ratio (95% CI)” value (multivariable Cox regression model, colchicine vs. placebo, 4745 observations)?
Answer: Its value is 0.78 (0.62-0.98).

Question: And the “MI, % of patients” value (per-protocol population)?
Answer: The value was “(3.4%)”.

Question: And the “MI, no. of patients” value (per-protocol population)?
Answer: Its value is 77 no.

Question: What about the “Primary endpoint, % of patients” value (per-protocol population) of the same compound?
Answer: The value was “(5.1%)”.
